Experimental data as given in patent US20220112479A1, “COMPOUNDS STABILIZING AMYLASES IN LIQUIDS” (BASF SE, priority 2018, published 2022).

Tests used:
Type in all cases: biochemical
Savinase Ultra 16.0L = target: T1, Savinase Ultra 16.0L (Lederbergia lenta, UniProt P29600); assay: protease storage stability in liquid formulation (Suc-AAPF-pNA substrate); details: 1.5 wt % component (a), storage at 37° C.
T1 construct: purchased Sigma-Aldrich
T1 sequence (P29600 1-269): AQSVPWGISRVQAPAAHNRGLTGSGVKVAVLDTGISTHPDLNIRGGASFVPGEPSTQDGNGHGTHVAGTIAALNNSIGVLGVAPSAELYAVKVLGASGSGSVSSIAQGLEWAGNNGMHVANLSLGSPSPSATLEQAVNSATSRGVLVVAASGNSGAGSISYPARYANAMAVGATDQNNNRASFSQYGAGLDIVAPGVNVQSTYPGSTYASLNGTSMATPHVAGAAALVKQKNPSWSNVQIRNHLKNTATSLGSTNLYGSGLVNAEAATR
Method: Base test formulations were manufactured by making base formulations I to V by mixing the components according to Table 1.
Protease used: (S) Savinase Ultra 16.0L (CAS-No. 9014-01-1, EC-No. 232-752-2) was purchased from Sigma-Aldrich
The respective component (a) or comparative compound was added, if applicable, to the respective base formulation in amounts as indicated in Table 1.
The amount of protease as provided in Table 1 refers to active protein.
Water was added to accomplish the balance to 100.
Protease activity at certain points in time as indicated in Table 3 was be determined by employing Succinyl-Ala-Ala-Pro-Phe-p-nitroanilide (Suc-AAPF-pNA, short AAPF) as substrate. pNA is cleaved from the substrate molecule by proteolytic cleavage, resulting in release of yellow color of free pNA which was determined by measuring […]. Measurements were done at 20° C.
The proteolytic activity values provided in Table 3 were calculated referring to the value determined in the reference formulation at the time 0.
The nomenclature of formulations is as follows: the Roman number before the full stop characterizes the base formulation, the Arabian number the type of salt (A.#inventive salt (component (a)); B.# comparative compound). Zero (“0”): no salt, but diethylene glycol.

Amy1=Stainzyme = assay: amylase storage stability in liquid formulation (pNP release from Ethyliden-blocked-pNPG7); set-up: key: % of activity in reference formulation at time 0; details: base formulation I., 1.5 wt % component (a), storage at 37° C.
Method: (§1) The storage stability of amylase was assessed at 37° C. Base test formulations were manufactured by making base formulations I to V by mixing the components according to Table 1. Amylases used: Amy1=Stainzyme, Amy2=Amplify, Amy3=Stainzyme Plus L (12L) The respective component (a) or comparative compound was added, if applicable, to the respective base formulation in amounts as indicated in Table 1. The amount of amylase as provided in Table 1 refers to active protein. Water was added to accomplish the balance to 100. […] Amylase activity at certain points in time as indicated in Table 2 was measured quantitatively by the release of the chromophore para-nitrophenol (pNP) from the substrate ([…]-blocked-pNPG7, Roche Applied Science 10880078103). The alpha-amylase degrades the substrate into smaller molecules and α-glucosidase (Roche Applied Science 11626329103), which is present in excess compared to the amylase, process these smaller products until pNP is released; the release of pNP, measured via an increase of absorption at 405 nm, is directly proportional to the amylase activity of the sample. Amylase standard: […] 120 L (Sigma 3403). […] The amylolytic activity values provided were calculated referring to the value determined in the reference formulation at the time 0. The nomenclature of formulations is as follows: the Roman number before the full stop characterizes the base formulation, the Arabian number the type of compound (A.# compound according to invention (component (a)); B.# comparative compound).

Amy2=Amplify = assay: as above; set-up: key: % of activity in reference formulation at time 0; details: base formulation III., 1.5 wt % component (a), storage at 37° C.
Method: as §1

## CCOC(=O)CC(CC(=O)OCC)(OC(C)=O)C(=O)OCC [A.5, Acetyltriethylcitrate]
Savinase Ultra 16.0L; base formulation I., 3 d
  protease activity, referring to reference formulation at time 0: 96
Savinase Ultra 16.0L; base formulation I., 7 d
  protease activity, referring to reference formulation at time 0: 90
Savinase Ultra 16.0L; base formulation I., 14 d
  protease activity, referring to reference formulation at time 0: 84
Savinase Ultra 16.0L; base formulation I., 21 d
  protease activity, referring to reference formulation at time 0: 80
Savinase Ultra 16.0L; base formulation I., 28 d
  protease activity, referring to reference formulation at time 0: 76
Savinase Ultra 16.0L; base formulation I., 42 d
  protease activity, referring to reference formulation at time 0: 62
Savinase Ultra 16.0L; base formulation I., T0
  protease activity, referring to reference formulation at time 0: 98
Savinase Ultra 16.0L; base formulation III., 3 d
  protease activity, referring to reference formulation at time 0: 98
Savinase Ultra 16.0L; base formulation III., 7 d
  protease activity, referring to reference formulation at time 0: 92
Savinase Ultra 16.0L; base formulation III., 14 d
  protease activity, referring to reference formulation at time 0: 83
Savinase Ultra 16.0L; base formulation III., 21 d
  protease activity, referring to reference formulation at time 0: 79
Savinase Ultra 16.0L; base formulation III., 28 d
  protease activity, referring to reference formulation at time 0: 71
Savinase Ultra 16.0L; base formulation III., 42 d
  protease activity, referring to reference formulation at time 0: 65
Savinase Ultra 16.0L; base formulation III., T0
  protease activity, referring to reference formulation at time 0: 100
Amy1=Stainzyme; 3 d
  amylase activity, referring to reference formulation at time 0: 91
Amy1=Stainzyme; 7 d
  amylase activity, referring to reference formulation at time 0: 80
Amy1=Stainzyme; 14 d
  amylase activity, referring to reference formulation at time 0: 72
Amy1=Stainzyme; 21 d
  amylase activity, referring to reference formulation at time 0: 63
Amy1=Stainzyme; 28 d
  amylase activity, referring to reference formulation at time 0: 55
Amy1=Stainzyme; 42 d
  amylase activity, referring to reference formulation at time 0: 37
Amy1=Stainzyme; T0
  amylase activity, referring to reference formulation at time 0: 97
Amy2=Amplify; 3 d
  amylase activity, referring to reference formulation at time 0: 96
Amy2=Amplify; 7 d
  amylase activity, referring to reference formulation at time 0: 92
Amy2=Amplify; 14 d
  amylase activity, referring to reference formulation at time 0: 87
Amy2=Amplify; 21 d
  amylase activity, referring to reference formulation at time 0: 78
Amy2=Amplify; 28 d
  amylase activity, referring to reference formulation at time 0: 71
Amy2=Amplify; 42 d
  amylase activity, referring to reference formulation at time 0: 55
Amy2=Amplify; T0
  amylase activity, referring to reference formulation at time 0: 96
